Data on four molecules can be found in paper PMC3141655 (BMC Biochemistry, 2011).

“Also recorded” adds a separate entry of the source. Where two headings read alike, the source gives them in different places.

For one data set, the system named is OASS (StOASS and HiOASS). It is filed as biochemical. The settings on record: purified enzymes; read-out: Km,OAS.
The target in data set [1] is OASS. More on the design: method as in PMID 10995767. Particulars: from Kext, single-wavelength stopped flow; cited from earlier work.
In data set [2] the target is T1, StOASS (O-acetylserine sulfhydrylase) (Salmonella typhimurium, UniProt P0A1E3).
In data set [3] the target is T2, HiOASS (O-acetylserine sulfhydrylase) (Haemophilus influenzae, UniProt P45040).
Data set [4] addresses OASS. Also noted: method as in PMID 7547955. Particulars: earlier study; read-out: Kd, reported value; cited from earlier work.
The target in data set [5] is T1, StOASS (O-acetylserine sulfhydrylase). As to the kind of experiment: PLP fluorescence titration of ligands with StOASS. It is filed as binding. More on the design: His tag (N); made in house; host or cells: E. coli BL21(DE3), pET28a(+). The settings on record: for change of OASS PLP fluorescence upon addition of ligand: up to ~1 mM ligand. The protocol:
Titrations of ligands with StOASS were examined by monitoring changes in the active site pyridoxal 5'phosphate (PLP) fluorescence of OASS using a Varian spectrofluorometer. The excitation and emission wavelengths for monitoring PLP signal change upon ligand binding were 412 nm and 507 nm respectively. All experiments were done at 23.0 ± 1°C. Slit widths were set to 5 nm for all experiments and PMT voltage was adjusted to get maximum signal for a given protein concentration. Initial readings of both the sample, Fsamp,0 and buffer, Fbuf,0 were taken, with F0 = Fsamp,0-Fbuf,0 defined as the initial fluorescence of the sample. The sample cuvette was then titrated with aliquots of ligands and mixed, equilibrated for 2-5 minutes before measurement. Data points from five such measurements were averaged to obtain Fave,i. The relative fluorescence quenching upon ligand binding is defined as Qobs,i = (F0-Fobs,i)/F0. All measurements were corrected for dilution, and inner filter effects.
Binding of ligands to OASS was analyzed to obtain the equilibrium binding constant, Kobs = [PL]/[P]*[L], using a single or two independent site binding models (eqn 1)(1) [drawing 1]
Where n, number of binding sites, Qobs, observed fluorescence quenching and Qmax, the maximum fluorescence quenching at saturation.

The target in data set [6] is T2, HiOASS (O-acetylserine sulfhydrylase). As to the kind of experiment: PLP fluorescence titration of ligands with HiOASS. It is filed as binding. More on the design: His tag (N); made in house; host or cells: E. coli BL21(DE3), pET28a(+). Particulars: 20 mM Tris pH 8.0.
Substrate in data set [7]: CC(=O)OC[C@H](N)C(=O)O
Put plainly: Steady state kinetic measurement of StOASS activity (ninhydrin-cysteine assay). It is filed as biochemical, Salmonella typhimurium. The settings on record: other: 0.1M Hepes, pH 7.5, 30 °C, 2 mM Na2S, OAS 1-10 mM. Here is the method:
Steady state kinetic measurement of StOASS activity in the reaction buffer (as in Fig S2).
OASS activity was measured by monitoring the cysteine formation. Data were fitted to Michaelis-Menten equation using origin 5.0. The Km(OAS) was estimated to be 0.89 […]
Enzyme assay: Assay is based on the specific reaction of ninhydrin with cysteine under strong acidic conditions and monitoring of modified cysteine (ninhydrin-cysteine adduct) at 560 nm. The reaction was allowed to proceed for 20 minutes (30 °C, linear phase) with varied concentrations of OAS (1- 10 mM, 2 mM Na2S) in the reaction buffer (0.1M Hepes, pH 7.5, 150 µl reaction volume). The reaction was terminated with 5% TFA and centrifuged at 11000 rpm for 2 min. 125 µl glacial acetic acid + 125 µl acidic ninhydrin reagent were added to 125 µl of supernatant. Samples were boiled for 10 min at 100°C and cooled to room temperature. 600 µl of chilled absolute ethanol was added to the mix and the absorbance at 560 nm was used for determining the amount of cysteine present in the sample. Cysteine liberated was determined from a standard curve plotted by using known concentrations of cysteine.

[8] abbreviates: 25°C, 20 mM Tris pH 8.0, 50 mM NaCl.
Where [9] appears, read: 10°C, 20 mM Tris pH 8.0, 50 mM NaCl.
[10] abbreviates: 15°C, 20 mM Tris pH 8.0, 50 mM NaCl.
[11] abbreviates: 20°C, 20 mM Tris pH 8.0, 50 mM NaCl.
The mark [12] stands for this setting: 30°C, 20 mM Tris pH 8.0, 50 mM NaCl.
Setting [13] is: 35°C, 20 mM Tris pH 8.0, 50 mM NaCl.
Where [14] appears, read: temperature not stated in the sentence (values match 30°C of Table 1).
[15] abbreviates: [NaCl] 0.02 M, 20 mM Tris pH 8.0.
Where [16] appears, read: [NaCl] 0.1 M, 20 mM Tris pH 8.0.
Setting [17] is: [NaCl] 0.2 M, 20 mM Tris pH 8.0.
[18] abbreviates: [NaCl] 0.5 M, 20 mM Tris pH 8.0.

T2 sequence (P45040 whole entry): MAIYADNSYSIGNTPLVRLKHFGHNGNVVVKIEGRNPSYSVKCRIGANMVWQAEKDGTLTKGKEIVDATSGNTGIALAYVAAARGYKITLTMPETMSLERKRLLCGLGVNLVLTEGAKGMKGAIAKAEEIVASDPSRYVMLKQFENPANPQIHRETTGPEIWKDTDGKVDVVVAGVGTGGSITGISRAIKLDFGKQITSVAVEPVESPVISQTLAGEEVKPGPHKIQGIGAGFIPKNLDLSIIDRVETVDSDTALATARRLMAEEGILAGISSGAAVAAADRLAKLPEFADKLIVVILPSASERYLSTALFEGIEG

One may read the Km as the substrate concentration at which the rate is half of its maximum. In general, Kd refers to the equilibrium constant for the complex coming apart. As to `CC(=O)OC[C@H](N)C(=O)O` [OAS, O-acetylserine], in the data set on OASS (StOASS and HiOASS), the Michaelis constant (Km) is 900 to 1400 µM. The Kd at OASS [1] was about 5.6 mM; in data set [2], 0.56 mM; in data set [3], about 0.77 mM. The “contribution of enthalpy to total binding free energy” value in data set [2] (25°C) and in data set [3] (25°C) was “less than 3%” each time. In addition, the apparent binding constant in data set [2] (setting [8]) is ~ 1.8 ± 0.6 × 10^3 M^-1. Moreover, the ΔG in data set [2] (setting [8]) is reported as -17.6 kJ/M; in data set [3] (setting [8]) it was -16.9 kJ/M. In data set [3] (setting [8]), the binding constant is given as ~ 1.3 ± 0.4 × 10^3 M^-1. In data set [3] (setting [8]), this molecule came in with an enthalpy value of 0.45 ± 0.3 kJ/M.

With `N[C@@H](CO)C(=O)O` [L-serine], the Kd at OASS [4] was 4.2 mM; in data set [5] (pH 9.5, 20 mM Tris, 20 mM NaCl, read-out: Kd (equilibrium dissociation constant)) it was about 3.7 mM. Also, the “change of OASS PLP fluorescence upon addition of ligand” value in data set [5] (pH 8.0 (20 mM Tris, 20 mM NaCl)) was “does not change OASS fluorescence; also recorded: does not change PLP”; in data set [5] (pH 9.5 (20 mM Tris, 20 mM NaCl)), “leads to changes in the OASS fluorescence; also recorded: increases the PLP fluorescence”.

In the case of `CSCC[C@H](N)C(=O)O` [Methionine, L-methionine], the ΔH in data set [2] (25 mM HEPES, pH 8.0, 50 mM NaCl, 25°C) was -0.4 ± 0.1 kJ/M; in data set [2] (setting [9]), -0.311 ± 0.024 kcal/mol; in data set [2] (setting [10]) it was -0.335 ± 0.024 kcal/mol; in data set [2] (20°C) it was -1.5 ± 0.1 kJ/M; in data set [2] (setting [11]), -0.359 ± 0.024 kcal/mol; in data set [2] (setting [8]), -0.22 ± 0.024 kcal/mol. Moreover, the ΔH in data set [2] (setting [12]) is -0.239 ± 0.024 kcal/mol; in data set [2] (setting [13]) it was -0.287 ± 0.024 kcal/mol; in data set [2] (setting [14]), -1.0 ± 0.2 kJ/M; in data set [3] (setting [9]) it was -0.048 ± 0.024 kcal/mol; in data set [3] (setting [10]), -0.048 ± 0.024 kcal/mol; in data set [3] (setting [11]) it was -0.048 ± 0.024 kcal/mol. In addition, the ΔH in data set [3] (setting [8]) is -0.19 ± 0.024 kcal/mol; in data set [3] (setting [12]), -0.17 ± 0.024 kcal/mol. Also, the TdS in data set [2] (setting [9]) was 1.74 kcal/mol; in data set [2] (setting [10]), 1.72 kcal/mol; in data set [2] (setting [11]), 1.96 kcal/mol; in data set [2] (setting [8]) it was 2.06 kcal/mol; in data set [2] (setting [12]), 2.25 kcal/mol; in data set [2] (setting [13]), 2.41 kcal/mol. For the same molecule, the TdS in data set [3] (setting [9]) worked out at 1.7 kcal/mol; in data set [3] (setting [11]), 1.91 kcal/mol; in data set [3] (setting [8]) it was 1.65 kcal/mol; in data set [3] (setting [12]), 1.84 kcal/mol. For the same molecule, the ΔG in data set [2] (10°C, 20 mM Tris pH 8.0, 50 mM NaCl, two independent sites model) is -2.06 ± 0.19 kcal/mol; in data set [2] (setting [10]), -2.06 ± 0.096 kcal/mol; in data set [2] (setting [11]), -2.32 ± 0.12 kcal/mol; in data set [2] (setting [8]) it was -2.27 ± 0.12 kcal/mol; in data set [2] (setting [12]) it was -2.49 ± 0.19 kcal/mol; in data set [2] (setting [13]), -2.7 ± 0.311 kcal/mol. Moreover, the ΔG was -10.4 kJ/M in data set [2] (setting [14]); -1.72 ± 0.22 kcal/mol in data set [3] (setting [9]); -1.72 ± 0.22 kcal/mol in data set [3] (setting [10]); -1.96 ± 0.239 kcal/mol in data set [3] (setting [11]); -1.82 ± 0.263 kcal/mol in data set [3] (setting [8]); -2.01 ± 0.239 kcal/mol in data set [3] (setting [12]). For the same molecule, the ΔG was -3.18 ± 0.024 kcal/mol in data set [5] (setting [15]); -2.39 ± 0.024 kcal/mol in data set [5] (setting [16]); -2.25 ± 0.024 kcal/mol in data set [5] (setting [17]); -2.08 ± 0.024 kcal/mol in data set [5] (setting [18]); -2.82 ± 0.048 kcal/mol in data set [6] ([NaCl] 0.02 M); -2.27 ± 0.12 kcal/mol in data set [6] ([NaCl] 0.1 M). Further, the ΔG in data set [6] ([NaCl] 0.2 M) is -1.94 ± 0.12 kcal/mol; in data set [6] ([NaCl] 0.5 M), -1.74 ± 0.14 kcal/mol. Further, the TΔS in data set [2] (20°C) was 8.2 kJ/M. Further, the “net enthalpic contribution to total binding free energy” value in data set [2] (temperature not given) was ~ 10%. In addition, the “enthalpic contribution to binding free energy” value in data set [3] was 8%. The “N (number of binding sites)” value in data set [5] (setting [15]), in data set [5] (setting [16]), in data set [5] (setting [17]), in data set [5] (setting [18]), in data set [6] ([NaCl] 0.1 M) and in data set [6] ([NaCl] 0.2 M) was 2 each time. Also, the “N (number of binding sites)” value in data set [6] ([NaCl] 0.5 M) turned out to be 2. Also, in data set [5] (setting [15]), the “Qmax (maximum fluorescence quenching at saturation)” value came out at 3.8. For the same molecule, the Kobs was 2.9 ± 0.1 × 10^2 M^-1 in data set [5] ([NaCl] 0.02 M, 20 mM Tris pH 8.0, similar for each of two sites); 290 M⁻¹ in data set [5] ([NaCl] 0.02 M, 20 mM Tris pH 8.0, similar for each of two sites, listed as methionine); 6.5 ± 0.1 × 10^1 M^-1 in data set [5] (setting [16]); 5.5 ± 0.1 × 10^1 M^-1 in data set [5] (setting [17]); 3.5 ± 0.1 × 10^1 M^-1 in data set [5] (setting [18]); 1.5 ± 0.1 × 10^2 M^-1 in data set [6] ([NaCl] 0.02 M). Besides, the results for the Kobs in data set [6] ([NaCl] 0.1 M), in data set [6] ([NaCl] 0.2 M) and in data set [6] ([NaCl] 0.5 M) were 5.8 ± 0.1 × 10^1 M^-1, 3.4 ± 0.1 × 10^1 M^-1 and 2.3 ± 0.1 × 10^1 M^-1, respectively. For the same molecule, the Qmax in data set [5] (setting [16]) was found to be 1.0; in data set [5] (setting [17]) it was 1.4; in data set [5] (setting [18]) it was 0.5; in data set [6] ([NaCl] 0.02 M), 3.0; in data set [6] ([NaCl] 0.1 M), 0.5; in data set [6] ([NaCl] 0.2 M), 0.2. This molecule showed a Qmax in data set [6] ([NaCl] 0.5 M) of 0.2. In data set [5] (from K1,obs and K2,obs of the PLP fluorescence titration, read-out: Kd), the Kd was about 3.4 mM.

B1: StOASS (Salmonella enterica subsp. enterica serovar Typhimurium str. LT2) (protein)
chain: MSKIYEDNSLTIGHTPLVRLNRIGNGRILAKVESRNPSFSVKCRIGANMIWDAEKRGVLKPGVELVEPTSGNTGIALAYVAAARGYKLTLTMPETMSIERRKLLKALGANLVLTEGAKGMKGAIQKAEEIVASDPQKYLLLQQFSNPANPEIHEKTTGPEIWEDTDGQVDVFISGVGTGGTLTGVTRYIKGTKGKTDLITVAVEPTDSPVIAQALAGEEIKPGPHKIQGIGAGFIPGNLDLKLIDKVVGITNEEAISTARRLMEEEGILAGISSGAAVAAALKLQEDESFTNKNIVVILPSSGERYLSTALFADLFTEKELQQ
notes: His tag (N); made in house; host or cells: E. coli BL21(DE3), pET28a(+)
With B1, the Michaelis constant (Km) in data set [7] stood at 890 µM.
